Test results: article PMC11855827, “High-Throughput Screening of Five Compound Libraries for Anthelmintic Activity and Toxicity Leads to the Discovery of Two Flavonoid Compounds” (International Journal of Molecular Sciences, 2025)
Like-named read-outs stand apart in the source and are kept apart here.

Test system: C. elegans
Test: microbe, parasite or virus in culture
Details: Caenorhabditis elegans
[1] = 0 h, read-out: Percentage of motility inhibition 0 h, Table S2, C. elegans SS assay, 110 μM, 0 h, averages of 4 data points
[2] = 24 h, read-out: Percentage of motility inhibition 24 h, Table S2, C. elegans SS assay, 110 μM, 24 h, averages of 4 data points
[3] = 0 h, read-out: Percentage of motility inhibition 0 h
[4] = 24 h, read-out: Percentage of motility inhibition 24 h

| Structure (SMILES) | inhibition at 110 µM [1] [%] | inhibition at 110 µM [2] [%] | other results |
| --- | --- | --- | --- |
| Nc1nc2c(ncn2COCCO)c(=O)[nH]1 [Acyclovir] | 17 | 12 |  |
| COc1cc(O)c2c(=O)c(-c3ccc(O)cc3)coc2c1 [Prunetin] | 0 | 7 |  |
| CCCc1cc(C(N)=S)ccn1 [Prothionamide] | 44 | 7 |  |
| O=C1Cc2ccccc2N1 [Oxindole] | 14 | 7 |  |
| CS(=O)(=O)c1ccc([C@@H](O)[C@@H](CF)NC(=O)C(Cl)Cl)cc1 [Florfenicol] | 29 | 9 |  |
| CC[C@@H]1[C@H]2CCCCN3[C@H]2[C@H](C[C@H]3[C@@H]2C[C@H](C)C(=O)O2)[C@@H]2[C@H]1OC(=O)[C@H]2C [Tuberostemonine] | 6 | 4 |  |
| C=C1CCC2(C(C)C)CC12 (stereo not drawn) [Sabinene] | 0 | 20 |  |
| C/C1=C\CC[C@]23O[C@H]2[C@@H](OC3=O)c2c(C)coc2C1 [Linderane] | 5 | 16 |  |
| C#C[C@]1(O)CC[C@H]2[C@@H]3CCc4cc(O)ccc4[C@H]3CC[C@@]21C [Ethinylestradiol] | 33 | 15 |  |
| C=C[C@H]1CN2CC[C@H]1C[C@H]2[C@H](O)c1ccnc2ccccc12 [Cinchonidine] | 0 | 0 |  |
| C=C(CCC=C(C)C)[C@H]1CC[C@]2(C)[C@@H]1[C@H](O)C[C@@H]1[C@@]3(C)C[C@@H](O)[C@H](O[C@@H]4O[C@H](CO)[C@@H](O)[C@H](O)[C@H]4O[C@@H]4O[C@H](CO)[C@@H](O)[C@H](O)[C@H]4O)C(C)(C)[C@@H]3CC[C@]12C [Damulin B] | 9 | 16 |  |
| Nc1ncnc2c1ncn2[C@@H]1O[C@H](CO)[C@@H](O)[C@H]1O [Adenosine] | 0 | 9 |  |
| COc1cc2c(cc1OC)-c1c(C)c3ccc(OC)c(OC)c3c[n+]1CC2 [Dehydrocorydaline] | 4 | 0 |  |
| CC(=O)N1CCN(c2ccc(OCC3COC(Cn4ccnc4)(c4ccc(Cl)cc4Cl)O3)cc2)CC1 (stereo not drawn) [Ketoconazole] | 13 | 0 |  |
| C=C(C)[C@H](CC=C(C)C)Cc1c(O)cc(O)c2c1O[C@H](c1ccc(O)cc1O)CC2=O [Sophoraflavanone G] |  |  | inhibition at 110 µM [3]: 55%; inhibition at 110 µM [4]: 4% |
| NC[C@H]1O[C@H](O[C@H]2[C@H](O)[C@@H](O[C@H]3O[C@H](CO)[C@@H](O)[C@H](N)[C@H]3O)[C@H](N)C[C@@H]2N)[C@H](N)C[C@@H]1O [Tobramycin] | 9 | 0 |  |
| CC1(C)CC[C@]2(C(=O)O[C@@H]3O[C@H](CO)[C@@H](O)[C@H](O)[C@H]3O)CC[C@]3(C)C(=CC[C@@H]4[C@@]5(C)CC[C@H](O[C@@H]6O[C@H](C(=O)O)[C@@H](O)[C@H](O)[C@H]6O[C@@H]6OC[C@@H](O)[C@H](O)[C@H]6O)C(C)(C)[C@@H]5CC[C@]43C)[C@@H]2C1 [Pseudoginsenoside RT1] | 1 | 0 |  |
| COC(=O)Nc1nc2ccc(C(=O)c3ccccc3)cc2[nH]1 [Mebendazole] | 18 | 37 |  |
| CC(C)CN(C[C@@H](O)[C@H](Cc1ccccc1)NC(=O)O[C@H]1CO[C@H]2OCC[C@H]21)S(=O)(=O)c1ccc(N)cc1 [Darunavir] |  |  | inhibition at 110 µM [3]: 39%; inhibition at 110 µM [4]: 26% |
| CC(C)=CCC[C@](C)(O[C@@H]1O[C@H](CO)[C@@H](O)[C@H](O)[C@H]1O)[C@H]1CC[C@]2(C)[C@@H]1[C@H](O)C[C@@H]1[C@@]3(C)CC[C@H](O)C(C)(C)[C@@H]3[C@@H](O[C@@H]3O[C@H](CO)[C@@H](O)[C@H](O)[C@H]3O[C@@H]3O[C@@H](C)[C@H](O)[C@@H](O)[C@H]3O)C[C@]12C [Ginsenoside Re] | 0 | 0 |  |
| C=C1C[C@]23C[C@@]1(O)CC[C@H]2[C@@]12C=C[C@H](O)[C@@](C)(C(=O)O1)[C@H]2[C@@H]3C(=O)O [Gibberellic acid] | 17 | 22 |  |
| COc1cc(-c2coc3cc4c(c(OC)c3c2=O)OCO4)cc(OC)c1OC [Irisflorentin] | 26 | 34 |  |
| COC1=CC(=O)C[C@@H](C)[C@]12Oc1c(Cl)c(OC)cc(OC)c1C2=O [Griseofulvin] | 3 | 1 |  |
| C[C@@H]1CC[C@]2(C(=O)O[C@@H]3O[C@H](CO)[C@@H](O)[C@H](O)[C@H]3O)CC[C@]3(C)C(=CC[C@@H]4[C@@]5(C)CC[C@H](O)[C@@](C)(CO)[C@@H]5CC[C@]43C)[C@@H]2[C@]1(C)O [Pedunculoside] | 14 | 13 |  |

| Structure (SMILES) | inhibition at 110 µM [1] [%] | inhibition at 110 µM [2] [%] | other results |
| --- | --- | --- | --- |
| Cc1c([C@H](C)[C@@H]2NC[C@@H](C)C[C@H]2O)ccc2c1C[C@H]1[C@H]2CC=C2C[C@@H](O)CC[C@@]21C [Veratramine] |  |  | inhibition at 110 µM [3]: 9%; inhibition at 110 µM [4]: 2% |
| C[C@@H]1O[C@@H](O[C@H]2[C@H](O[C@H]3CO[C@@H](O[C@H]4CC[C@]5(C)[C@H]6CC[C@]78OC[C@@]9(CC[C@](C)(C=O)C[C@H]97)[C@H](O)C[C@@]8(C)[C@]6(C)CC[C@H]5C4(C)C)[C@H](O[C@@H]4O[C@H](CO)[C@@H](O)[C@H](O)[C@H]4O)[C@H]3O)O[C@H](CO)[C@@H](O)[C@@H]2O)[C@H](O)[C@H](O)[C@H]1O [Ardisiacrispin B] | 16 | 0 |  |
| CN1C(=O)/C(=C2/C(=O)Nc3ccccc32)c2ccccc21 [Meisoindigo] | 0 | 0 |  |
| CC(=O)C1C(=O)C=C(C)OC1=O (stereo not drawn) [Dehydroacetic acid] | 45 | 17 |  |
| COc1c(O)cc2oc(-c3ccccc3)cc(=O)c2c1O [Oroxylin A] | 39 | 12 |  |
| CO[C@H]1/C=C/O[C@@]2(C)Oc3c(C)c(O)c4c(O)c(c(/C=N/N5CCN(C6CCCC6)CC5)c(O)c4c3C2=O)NC(=O)/C(C)=C\C=C\[C@H](C)[C@H](O)[C@@H](C)[C@@H](O)[C@@H](C)[C@H](OC(C)=O)[C@@H]1C [Rifapen tine] | 9 | 13 |  |
| OC[C@H]1O[C@@H](O[C@@H]2OC=C[C@H]3[C@H](O)[C@@H]4O[C@]4(CO)[C@@H]23)[C@H](O)[C@@H](O)[C@@H]1O [Catalpol] | 0 | 16 |  |
| O=c1c(-c2ccc(O[C@@H]3O[C@H](CO)[C@@H](O)[C@H](O)[C@H]3O)cc2)coc2cc(O)cc(O)c12 [Sophoricoside] |  |  | inhibition at 110 µM [3]: 0%; inhibition at 110 µM [4]: 9% |
| C=C1C(=O)O[C@H]2[C@H]1CC/C(C)=C/CC[C@@]1(C)O[C@@H]21 [Parthenolide] | 6 | 26 |  |
| C=C[C@H]1CN2CC[C@]3(C(=O)Nc4ccccc43)[C@@H]2C[C@@H]1/C(=C\OC)C(=O)OC [Corynoxeine] | 0 | 2 |  |
| Cc1onc(-c2ccccc2)c1C(=O)N1CCN(c2ccc([N+](=O)[O-])cc2Cl)CC1 [Nucleozin] | 17 | 8 |  |
| O[C@H]1[C@H]2c3cc4c(cc3CN3CCC(=C[C@@H]1O)[C@H]23)OCO4 [Lycorine] | 34 | 0 |  |
| CC1=C(C(=O)O)N2C(=O)[C@@H](NC(=O)[C@H](N)c3ccccc3)[C@H]2SC1 [Cephalexin] | 21 | 13 |  |
| c1ccc(C2CN3CCSC3=N2)cc1 (stereo not drawn) [Tetramisole, reference compound] |  |  | inhibition at 110 µM (0 h, read-out: Inhibition (%) 110 μM (0 h), C. elegans L4 motility, 110 μM, 0 h, mean ± SD of four experiments): 78 ± 2%; inhibition at 110 µM (24 h, read-out: Inhibition (%) 110 μM (24 h), C. elegans L4 motility, 110 μM, 24 h, mean ± SD of four experiments): 82 ± 3% |
| C[C@H]1CC[C@]2(NC1)O[C@H]1C[C@H]3[C@@H]4CC[C@H]5C[C@@H](O)CC[C@]5(C)[C@H]4CC[C@]3(C)[C@H]1[C@@H]2C [Tomatidine] | 6 | 0 |  |
| CC1=C(C/C=C(\C)CCC[C@H](C)CCC[C@H](C)CCCC(C)C)C(=O)c2ccccc2C1=O [Vitamin K1] | 6 | 13 |  |
| C[C@@]1(CO)C[C@@H](O)C[C@@]2(C)[C@@H]3CC[C@](C)([C@@H](O)CO)C=C3CC[C@H]12 [Kirenol] | 0 | 15 |  |
| CCCCCCCCCC(=O)N[C@@H](Cc1c[nH]c2ccccc12)C(=O)N[C@H](CC(N)=O)C(=O)N[C@@H](CC(=O)O)C(=O)N[C@@H]1C(=O)NCC(=O)N[C@@H](CCCN)C(=O)N[C@@H](CC(=O)O)C(=O)N[C@H](C)C(=O)N[C@@H](CC(=O)O)C(=O)NCC(=O)N[C@H](CO)C(=O)N[C@@H]([C@H](C)CC(=O)O)C(=O)N[C@@H](CC(=O)c2ccccc2N)C(=O)O[C@@H]1C [Daptomycin] | 3 | 8 |  |
| CC(=O)OC/C=C(C)/C=C/C=C(C)/C=C/C1=C(C)CCCC1(C)C [Retinyl acetate] | 0 | 0 |  |
| Cc1cc(C(C#N)c2ccc(Cl)cc2)c(Cl)cc1NC(=O)c1cc(I)cc(I)c1O (stereo not drawn) [Closantel] | 4 | 48 |  |
| COC(=O)[C@@]12OC[C@]34[C@H]([C@@H](O)[C@@H]1O)[C@@]1(C)CC(=O)C(O)=C(C)[C@@H]1C[C@H]3OC(=O)[C@H](OC(=O)/C=C(\C)C(C)C)[C@@H]24 [Bruceantin] | 24 | 69 |  |
| CCCCCCCCCCCCCCCCCCCCCCO [1‐Docosanol] | 33 | 25 |  |
| CCCCCCCCCC(=O)O[C@H]1CC[C@H]2[C@@H]3CCC4=CC(=O)CC[C@@H]4[C@H]3CC[C@]12C [Nandrolone decanoate] | 29 | 31 |  |
| Oc1c(I)cc(Cl)c2cccnc12 [Clioquinol] | 23 | 0 |  |
